# From US8927717B1, “Thiochromeno[2,3-c]quinolin-12-one derivatives, preparation method and application thereof” (National Defense Medical Center, priority 2014, dated 2015)
# Legend:
# [1] = test system: IGROV1; format: cell-based
# [2] = test system: OVCAR-4; format: cell-based
# [3] = test system: SK-OV-3; format: cell-based
# [4] = test system: A498; format: cell-based
# [5] = test system: UACC-257; format: cell-based
# [6] = molecular target: T1, TOP I (Topoisomerase I) (Homo sapiens, UniProt P11387); test: TOP I mediated supercoiled DNA relaxation assay; format: biochemical; details: five different concentrations; TopoGEN TG2005H, TG-2000H-1
# T1 construct: purchased TopoGEN TG2005H
# T1 sequence (P11387 1-765): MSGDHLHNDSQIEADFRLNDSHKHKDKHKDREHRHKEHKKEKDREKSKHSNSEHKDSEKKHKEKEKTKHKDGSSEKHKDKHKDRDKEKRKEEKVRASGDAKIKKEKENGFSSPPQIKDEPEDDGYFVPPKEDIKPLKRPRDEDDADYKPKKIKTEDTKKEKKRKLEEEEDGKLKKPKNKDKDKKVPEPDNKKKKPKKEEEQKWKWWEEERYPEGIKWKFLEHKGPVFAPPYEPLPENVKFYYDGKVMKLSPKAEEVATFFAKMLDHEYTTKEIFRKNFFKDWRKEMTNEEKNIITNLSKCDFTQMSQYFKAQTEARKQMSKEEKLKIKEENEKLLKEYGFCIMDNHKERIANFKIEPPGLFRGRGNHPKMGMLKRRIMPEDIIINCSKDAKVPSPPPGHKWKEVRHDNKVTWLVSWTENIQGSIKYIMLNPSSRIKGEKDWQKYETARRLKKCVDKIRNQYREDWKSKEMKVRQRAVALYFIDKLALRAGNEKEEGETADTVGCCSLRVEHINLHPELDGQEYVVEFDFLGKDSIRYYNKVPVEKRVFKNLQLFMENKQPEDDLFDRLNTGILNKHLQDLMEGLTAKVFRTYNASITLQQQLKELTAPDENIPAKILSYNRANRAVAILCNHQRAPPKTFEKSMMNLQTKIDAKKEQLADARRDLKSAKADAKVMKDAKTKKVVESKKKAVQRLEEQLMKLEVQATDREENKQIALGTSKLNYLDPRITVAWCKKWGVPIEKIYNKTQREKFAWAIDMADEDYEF
# [7] = test system: HCT-15; format: cell-based
# [8] = test system: MOLT-4; format: cell-based
# [9] = test system: BT-549; format: cell-based
# [10] = test system: SR; format: cell-based
# [11] = test system: HCC-2998; format: cell-based
# [12] = test system: SK-MEL-2; format: cell-based; details: SK-Mel-2, five dose
# [13] = molecular target: T2, TOP II (Topoisomerase II) (Homo sapiens, UniProt P11388); test: TOP II-catalyzed relaxation of plasmid DNA assay; format: biochemical
# T2 construct: purchased TopoGEN TG-2000H-1
# T2 sequence (P11388 whole entry): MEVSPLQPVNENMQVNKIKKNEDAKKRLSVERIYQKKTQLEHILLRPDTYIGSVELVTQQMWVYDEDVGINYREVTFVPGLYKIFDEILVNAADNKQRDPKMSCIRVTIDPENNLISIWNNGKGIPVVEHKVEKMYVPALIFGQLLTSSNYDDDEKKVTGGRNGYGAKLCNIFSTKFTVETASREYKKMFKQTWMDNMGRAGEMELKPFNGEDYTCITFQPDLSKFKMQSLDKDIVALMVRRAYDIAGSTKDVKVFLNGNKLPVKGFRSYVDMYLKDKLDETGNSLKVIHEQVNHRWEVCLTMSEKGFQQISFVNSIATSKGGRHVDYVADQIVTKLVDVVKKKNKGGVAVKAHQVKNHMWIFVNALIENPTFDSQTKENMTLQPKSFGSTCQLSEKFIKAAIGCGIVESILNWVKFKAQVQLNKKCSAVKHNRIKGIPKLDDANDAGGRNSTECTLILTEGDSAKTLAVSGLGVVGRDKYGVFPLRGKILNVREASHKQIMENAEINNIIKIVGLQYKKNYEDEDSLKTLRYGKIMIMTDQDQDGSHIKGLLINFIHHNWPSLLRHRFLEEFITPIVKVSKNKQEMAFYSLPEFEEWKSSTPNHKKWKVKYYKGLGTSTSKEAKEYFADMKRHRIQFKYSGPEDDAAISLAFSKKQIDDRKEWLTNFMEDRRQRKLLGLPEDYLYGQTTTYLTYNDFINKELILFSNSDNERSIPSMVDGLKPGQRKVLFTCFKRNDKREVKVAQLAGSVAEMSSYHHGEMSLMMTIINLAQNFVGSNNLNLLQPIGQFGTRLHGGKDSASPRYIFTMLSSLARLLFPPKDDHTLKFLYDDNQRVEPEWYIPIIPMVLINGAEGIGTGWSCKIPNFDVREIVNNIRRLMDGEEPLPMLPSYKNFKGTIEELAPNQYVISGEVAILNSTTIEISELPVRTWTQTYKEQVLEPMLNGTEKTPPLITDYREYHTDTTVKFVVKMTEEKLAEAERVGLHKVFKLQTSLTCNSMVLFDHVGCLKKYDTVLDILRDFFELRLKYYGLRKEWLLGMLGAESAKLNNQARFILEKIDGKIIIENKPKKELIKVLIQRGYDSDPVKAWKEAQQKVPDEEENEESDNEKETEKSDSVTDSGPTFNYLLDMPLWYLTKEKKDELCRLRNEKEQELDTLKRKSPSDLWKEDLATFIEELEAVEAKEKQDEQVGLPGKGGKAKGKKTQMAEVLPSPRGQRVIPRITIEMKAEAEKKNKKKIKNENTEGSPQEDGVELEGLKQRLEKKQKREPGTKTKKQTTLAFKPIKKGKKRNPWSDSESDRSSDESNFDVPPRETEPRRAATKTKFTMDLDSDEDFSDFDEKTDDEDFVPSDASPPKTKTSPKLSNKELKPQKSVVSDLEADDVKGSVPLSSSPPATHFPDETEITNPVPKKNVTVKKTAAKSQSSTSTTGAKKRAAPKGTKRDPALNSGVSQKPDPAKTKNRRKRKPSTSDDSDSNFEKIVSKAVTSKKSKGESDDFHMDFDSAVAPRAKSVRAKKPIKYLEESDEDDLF
# Method: We also performed TOP II-catalyzed relaxation of plasmid DNA assays (FIG. 5-7) to evaluate if compounds could inhibit TOP II. […] The IC50 value of compounds 7, N7, N8, N14, N15, N18, and N19 were about 10, 10, 1, 10, 5, 1, and 1 μM, respectively (detect by TopoGEN TG2005H, TG-2000H-1).
# [14] = test system: NCI-H226; format: cell-based
# [15] = test system: HOP-92; format: cell-based; details: HOP-92, five dose
# [16] = test system: OVCAR-3; format: cell-based; details: Ovarian cancer; 10^−5 molar; 48 hours; SRB
# [17] = test system: MDA-MB-435; format: cell-based
# [18] = test system: A549/ATCC; format: cell-based
# [19] = test system: SF-539; format: cell-based
# [20] = molecular target: T1, TOP I (Topoisomerase I); test: TOP I mediated supercoiled DNA relaxation assay; format: biochemical; details: primary assay at 25 and/or 50 μM
# Method: According to the cell cytotoxicity, compounds 5, 7, 8, 16, 19, N2, N7, N8, N9, N14-N19, and N25 were also selected for primary TOP I and II activities assays at 25 and/or 50 μM (FIG. 2-4).
# [21] = test system: CAKI-1; format: cell-based
# [22] = test system: HCT-116; format: cell-based
# [23] = test system: HOP-62; format: cell-based
# [24] = Ovarian cancer, 10^−5 molar, 48 hours, SRB
# [25] = Renal cancer, 10^−5 molar, 48 hours, SRB
# [26] = Melanoma, 10^−5 molar, 48 hours, SRB
# [27] = Colon cancer, 10^−5 molar, 48 hours, SRB
# [28] = Homo sapiens, HCT-15, five dose
# [29] = Leukemia, 10^−5 molar, 48 hours, SRB
# [30] = Homo sapiens, HCC-2998, five dose
# [31] = Non-small cell lung cancer, 10^−5 molar, 48 hours, SRB
# [32] = Homo sapiens, A549/ATCC, five dose
# [33] = Homo sapiens, SF-539, five dose
# [34] = Homo sapiens, HCT-116, five dose
smiles,measurement,setting,value
"NCCNc1nc2ccccc2c2c(=O)c3cc(Cl)ccc3sc12 [Compound N14, 6-((2-Aminoethyl)amino)-10-chloro-12H-thiochromeno[2,3-c]quinolin-12-one]",GI50,"[1]; Homo sapiens, IGROV-1, IGROV1, five dose",1.61 µM
same,TGI,"[1]; IGROV1, five dose",3.45 µM
same,Growth percent IGROV1,[1]; [24],−77.31%
same,GI50,"[2]; Homo sapiens, OVCAR-4, five dose",1.52 µM
same,CC50,"[2]; Homo sapiens, OVCAR-4, five dose, read-out: LC50 (the source's name)",6.54 µM
same,TGI,"[2]; OVCAR-4, five dose",3.15 µM
same,Growth percent OVCAR-4,[2]; [24],−20.15%
same,GI50,"[3]; Homo sapiens, SK-OV-3, five dose",1.78 µM
same,CC50,"[3]; Homo sapiens, SK-OV-3, five dose, read-out: LC50 (the source's name)",6.42 µM
same,Growth percent SK-OV-3,[3]; [24],12.25%
same,TGI,"[3]; SK-OV-3, five dose",3.38 µM
same,TGI,"[4]; A498, five dose",4.99 µM
same,GI50,"[4]; Homo sapiens, A498, five dose",1.45 µM
same,CC50,"[4]; Homo sapiens, A498, five dose, read-out: LC50 (the source's name)",29.2 µM
same,Growth percent A498,[4]; [25],60.29%
same,GI50,"[5]; Homo sapiens, UACC-257, five dose",1.9 µM
same,CC50,"[5]; Homo sapiens, UACC-257, five dose, read-out: LC50 (the source's name)",6.7 µM
same,Growth percent UACC-257,[5]; [26],−67.35%
same,TGI,"[5]; UACC-257, five dose",3.56 µM
same,IC50,[6],~1 µM
same,Growth percent HCT-15,[7]; [27],−45.92%
same,TGI,"[7]; HCT-15, five dose",3.12 µM
same,GI50,[7]; [28],1.58 µM
same,LC50,[7]; [28],6.16 µM
same,GI50,"[8]; Homo sapiens, MOLT-4, five dose",2.02 µM
same,CC50,"[8]; Homo sapiens, MOLT-4, five dose, read-out: LC50 (the source's name)",7.77 µM
same,Growth percent MOLT-4,[8]; [29],−58.82%
same,TGI,"[8]; MOLT-4, five dose",3.96 µM
same,TGI,"[9]; BT-549, five dose",5.35 µM
same,Growth percent BT-549,"[9]; Breast cancer, 10^−5 molar, 48 hours, SRB",78.49%
same,GI50,"[9]; Homo sapiens, BT-549, five dose",2.15 µM
same,CC50,"[9]; Homo sapiens, BT-549, five dose, read-out: LC50 (the source's name)",62 µM
same,GI50,"[10]; Homo sapiens, SR, five dose",1.81 µM
same,LC50 (50% lethal concentration),"[10]; Homo sapiens, SR, five dose",> 100 µM
same,Growth percent SR,[10]; [29],−51.67%
same,TGI,"[10]; SR, five dose",4.30 µM
same,Growth percent HCC-2998,[11]; [27],−90.43%
same,TGI,"[11]; HCC-2998, five dose",4.06 µM
same,GI50,[11]; [30],2.03 µM
same,LC50,[11]; [30],8.14 µM
same,GI50,[12]; Homo sapiens,1.98 µM
same,LC50,[12]; Homo sapiens,7.87 µM
same,TGI,[12],3.95 µM
same,IC50,"[13]; five different concentrations, TopoGEN TG2005H, TG-2000H-1, read-out: IC50 value, TOP II mediated supercoiled DNA relaxation",~10 µM
same,inhibitory effect in TOP II relaxation assay compared with VP-16,[13]; primary assay at 25 and/or 50 μM,more potent inhibitory effects than the positive agent VP-16
same,GI50,"[14]; Homo sapiens, NCI-H226, five dose",1.36 µM
same,TGI,"[14]; NCI-H226, five dose",2.95 µM
same,Growth percent NCI-H226,[14]; [31],28.55%
same,TGI,[15],3.05 µM
same,GI50,[15]; Homo sapiens,1.03 µM
same,LC50,[15]; Homo sapiens,9.04 µM
same,Growth percent OVCAR-3,[16],−84.15%
same,GI50,"[17]; Homo sapiens, MDA-MB-435, five dose",1.82 µM
same,TGI,"[17]; MDA-MB-435, five dose",3.59 µM
same,Growth percent MDA-MB-435,[17]; [26],−85.39%
same,TGI,"[18]; A549/ATCC, five dose",3.50 µM
same,GI50,[18]; [32],1.83 µM
same,LC50,[18]; [32],6.68 µM
same,Growth percent A549/ATCC,[18]; [31],−88.76%
same,Growth percent SF-539,"[19]; CNS cancer, 10^−5 molar, 48 hours, SRB",2.13%
same,GI50,[19]; [33],1.57 µM
same,LC50,[19]; [33],5.52 µM
same,TGI,"[19]; SF-539, five dose",2.95 µM
same,inhibitory effect in TOP I activity assay compared with CPT,[20],more potent inhibitory effects than CPT
same,TGI,"[21]; CAKI-1, five dose",3.27 µM
same,GI50,"[21]; Homo sapiens, CAKI-1, five dose",1.56 µM
same,Growth percent CAKI-1,[21]; [25],−75.30%
same,Growth percent HCT-116,[22]; [27],−48.19%
same,TGI,"[22]; HCT-116, five dose",2.99 µM
same,GI50,[22]; [34],1.63 µM
same,LC50 (concentration killing 50% of cells),[22]; [34],5.47 µM
same,TGI,"[23]; HOP-62, five dose",2.92 µM
same,GI50,"[23]; Homo sapiens, HOP-62, five dose",1.47 µM
same,Growth percent HOP-62,[23]; [31],−97.40%
